Results from ChEMBL document CHEMBL4138164, “Thieno[2,3-b]pyridine derivatives are potent anti-platelet drugs, inhibiting platelet activation, aggregation and showing synergy with aspirin” (Eur J Med Chem, 2018).
Activity calls are given as the source filed them. The rule behind the calls is not given here.

Columns and labels:
[1] = target: P2Y purinoceptor 12 (Homo sapiens) (UniProt Q9H244); experiment: Antagonist activity at P2Y12 in human platelet rich plasma assessed as inhibition of ADP-induced CD62P expression at 10 uM pretreated for 30 mins followed by ADP addition measured after 5 mins by flow cytometric analysis; format: functional
[2] = target: P2Y purinoceptor 12 (Homo sapiens) (UniProt Q9H244); experiment: Antagonist activity at P2Y12 in human platelet rich plasma assessed as inhibition of ADP-induced PAC1 expression at 10 uM pretreated for 30 mins followed by ADP addition measured after 5 mins by flow cytometric analysis; format: functional
[3] = target: P2Y purinoceptor 12 (Homo sapiens) (UniProt Q9H244); experiment: Antagonist activity at P2Y12 in human platelet rich plasma assessed as inhibition of ADP-induced platelet aggregation at 10 uM pretreated for 30 mins followed by ADP addition measured after 5 mins by light transmission aggregometric analysis; format: functional
[4] = target: P2Y purinoceptor 12 (Homo sapiens) (UniProt Q9H244); experiment: Antagonist activity at P2Y12 in human platelet rich plasma assessed as inhibition of collagen-induced platelet aggregation at 10 uM pretreated for 30 mins followed by collagen addition measured after 5 mins by light transmission aggregometric analysis; format: functional
[5] = target: P2Y purinoceptor 12 (Homo sapiens) (UniProt Q9H244); experiment: Antagonist activity at P2Y12 in human whole blood assessed as inhibition of ADP-induced platelet-aggregation at 10 uM pretreated for 30 mins followed by ADP addition measured after 5 mins by FITC staining-based flow cytometric analysis; format: functional
[6] = target: P2Y purinoceptor 12 (Homo sapiens) (UniProt Q9H244); experiment: Synergistic inhibition of P2Y12 in human platelet rich plasma assessed as inhibition of ADP-induced platelet aggregation at 10 uM pretreated for 30 mins followed by ADP addition measured after 5 mins in presence of aspirin by light transmission aggregometric analysis; format: functional
[7] = tested on: Platelet; experiment: Cytotoxicity against platelet in human platelet rich plasma at 100 uM after 48 to 72 hrs; format: cell-based

P2Y purinoceptor 12 (Homo sapiens), sequence (Q9H244 whole entry): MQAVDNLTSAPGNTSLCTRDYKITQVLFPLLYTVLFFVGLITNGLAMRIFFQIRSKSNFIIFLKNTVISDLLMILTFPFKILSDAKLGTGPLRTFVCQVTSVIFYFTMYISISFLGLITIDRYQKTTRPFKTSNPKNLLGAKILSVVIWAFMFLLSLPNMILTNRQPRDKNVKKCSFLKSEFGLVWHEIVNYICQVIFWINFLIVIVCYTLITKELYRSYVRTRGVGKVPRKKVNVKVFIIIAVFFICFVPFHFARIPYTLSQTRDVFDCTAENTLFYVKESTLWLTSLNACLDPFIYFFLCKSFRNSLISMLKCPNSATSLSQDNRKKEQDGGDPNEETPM

Row | Structure (SMILES) | inhibition [1] | inhibition [2] | inhibition [3] | inhibition [4] | inhibition [5] | inhibition [6] | Activity [7]
1 | Cc1c(Br)cccc1NC(=O)c1sc2nc3c(cc2c1N)CCCCCC3 | Active | Active | Active | Active | Active | inactive | Non-Toxic
2 | COC(=O)[C@H](c1ccccc1Cl)N1CCc2sccc2C1 | – | – | Active | inactive | Active | – | –
3 | COc1ccc(NC(=O)c2sc3nc4c(cc3c2N)CCCCCC4)cc1 | Active | Active | Active | Active | Active | inactive | Non-Toxic
4 | Nc1c(C(=O)Nc2cccc(Cl)c2)sc2nc3c(cc12)C(=O)CCC3 | Active | Active | Active | Active | Active | Active | Non-Toxic
5 | Nc1c(C(=O)Nc2ccccc2)sc2nc3c(cc12)CCCCCC3 | Active | Active | Active | Active | Active | Active | Non-Toxic
6 | Cc1c(Cl)cccc1NC(=O)c1sc2nc3c(cc2c1N)CCCCC3 | Active | Active | Active | Active | Active | Active | Non-Toxic
7 | CC(=O)Oc1ccccc1C(=O)O | – | – | Active | – | – | – | –
8 | Nc1c(C(=O)Nc2ccccc2Cl)sc2nc3c(cc12)C(=O)CCC3 | Active | Active | Active | Active | Active | Active | Non-Toxic
